Test results from patent US4826847A, “Beta-blocking oxindole derivatives” (Boehringer Mannheim GmbH, priority 1984, dated 1989).
Counter-ions that a name gives are not always drawn. Like-named read-outs stand apart in the source and are kept apart here.

Columns and labels:
[1] = tested on: increase of the frequency through isoprenaline; assay: β-blocking effectiveness: inhibition of isoprenaline-induced increase of the frequency in rabbits; assay type: in vivo, rabbit; conditions: Oryctolagus cuniculus, iv, read-out: ID 50 fcor (dose which causes an inhibition of 50% of the increase of the frequency through isoprenaline)
[2] = tested on: livers; assay: denitration rate relative to isosorbide-5-mononitrate (Vrel): NO2 freed in perfusate of re-perfused rat livers; conditions: rat liver perfusion 4 min, 5×10^-5 M/l, NO2 determined in the perfusate; high values = fast denitration
[3] = rabbits, i.v., isoprenaline 1 mcg/kg i.v.

SMILES	ED50 [1, 3] [mg/kg]	Vrel (denitration rate in relation to isosorbide-5-mononitrate) [2]	ED50 [1] [mg/kg]
CC(C)(CCO[N+](=O)[O-])NCC(O)COc1cccc2c1CC(=O)N2 (centres unmarked) [1 (a), 4-[2-hydroxy-3-(1,1-dimethyl-3-nitratopropylamino)-propoxy]-indolinone hemifumarate]	0.015	1.23	
CC(CC(C)O[N+](=O)[O-])NCC(O)COc1cccc2c1CC(=O)N2 (centres unmarked) [1 (b), 4-[2-hydroxy-3-(1,3-dimethyl-3-nitratopropylamino)-propoxy]-indolinone fumarate]	0.0038	2.02	
CC(CCO[N+](=O)[O-])NCC(O)COc1ccc2c(c1)CC(=O)N2 (centres unmarked) [1 (c), 5-[2-hydroxy-3-(1-methyl-3-nitratopropylamino)-propoxy]-indolinone fumarate]	5.08	1.77	
CC(CCO[N+](=O)[O-])NCC(O)COc1ccc2c(c1)NC(=O)C2 (centres unmarked) [1 (d), 6-[2-hydroxy-3-(1-methyl-3-nitratopropylamino)-propoxy]-indolinone fumarate]		1.81	
CC(CCO[N+](=O)[O-])NCC(O)COc1cccc2c1NC(=O)C2 (centres unmarked) [1 (e), 7-[2-hydroxy-3-(1-methyl-3-nitratopropylamino)-propoxy]-indolinone fumarate]		1.79	
CC(CCO[N+](=O)[O-])NCC(O)COc1ccc2c(c1)C(C(C)C)C(=O)N2 (centres unmarked) [1 (f), 5-[2-hydroxy-3-(1-methyl-3-nitratopropylamino)-propoxy]-3-isopropylindolinone]		3.01	
CC(CCO[N+](=O)[O-])NCC(O)COc1ccc2c(c1)C(C(C)c1ccccc1)C(=O)N2 (stereo not drawn) [1 (g), 5-[2-hydroxy-3-(1-methyl-3-nitratopropylamino)-propoxy]-3-(α-methylbenzyl)-indolinone hemifumarate]	5.31	0.70	
CC(=C1C(=O)Nc2ccc(OCC(O)CNC(C)CCO[N+](=O)[O-])cc21)c1ccccc1 (stereo not drawn) [1 (i), 5-[2-hydroxy-3-(1-methyl-3-nitratopropylamino)-propoxy]-3-(α-methylbenzylidene)-indolinone hemifumarate]	3.36	0.81	
CC(CCO[N+](=O)[O-])NCC(O)COc1cccc2c1C(=Cc1ccc[nH]1)C(=O)N2 (centres unmarked) [2 (a), 4-[2-hydroxy-3-(1-methyl-3-nitratopropylamino)-propoxy]-3-(pyrrol-2-yl)-methylene-indolinone hemifumarate]		2.40	
CC(CCO[N+](=O)[O-])NCC(O)COc1cccc2c1C(=Cc1ccccn1)C(=O)N2 (centres unmarked) [2 (b), 4-[2-hydroxy-3-(1-methyl-3-nitratopropylamino)-propoxy]-3-(pyridin-2-yl)-methylene-indolinone fumarate]	0.172	0.86	
CC(CCO[N+](=O)[O-])NCC(O)COc1cccc2c1C(=Cc1ccccc1)C(=O)N2 (centres unmarked) [2 (c), 4-[2-hydroxy-3-(1-methyl-3-nitratopropylamino)-propoxy]-3-benzylideneindolinone fumarate]	1.97	0.59	
CC(CCO[N+](=O)[O-])NCC(O)COc1cccc2c1C(=Cc1ccco1)C(=O)N2 (centres unmarked) [4 (a), 4-[2-hydroxy-3-(1-methyl-3-nitratopropylamino)-propoxy]-3-(furan-2-yl)-methylene-indolinone fumarate]	0.0096	0.65	
CC(CCO[N+](=O)[O-])NCC(O)COc1cccc2c1C(=Cc1cccs1)C(=O)N2 (centres unmarked) [4 (b), 4-[2-hydroxy-3-(1-methyl-3-nitratopropylamino)-propoxy]-3-(thiophen-2-yl)-methylene-indolinone fumarate]	0.0276	0.54	
CC(CCO[N+](=O)[O-])NCC(O)COc1cccc2c1C(=Cc1nc[nH]n1)C(=O)N2 (centres unmarked) [4 (d), 4-[2-hydroxy-3-(1-methyl-3-nitratopropylamino)-propoxy]-3-(1,2,4-triazol-3-yl)-methyleneindolinone fumarate]	0.0096	1.00	
CC(=O)O.CC(CCO[N+](=O)[O-])NCC(O)COc1cccc2c1C(=Cc1cc(=O)[nH]c(=O)[nH]1)C(=O)N2 (centres unmarked) [4 (f), 4-[2-hydroxy-3-(1-methyl-3-nitratopropylamino)-propoxy]-3-(uracil-4-yl)-methylene-indolinone acetate]		1.80	
CC(C)(CCO[N+](=O)[O-])NCC(O)COc1cccc2c1C(=Cc1ccn[nH]1)C(=O)N2 (centres unmarked) [4 (g), 4-[2-hydroxy-3-(1,1-dimethyl-3-nitratopropylamino)-propoxy]-3-(pyrazol-5-yl)-methylene-indolinone hemifumarate]	0.013	1.59	
CC(CC(C)O[N+](=O)[O-])NCC(O)COc1cccc2c1C(=Cc1ccn[nH]1)C(=O)N2 (centres unmarked) [4 (h), 4-[2-hydroxy-3-(1,3-dimethyl-3-nitratopropylamino)-propoxy]-3-pyrazol-5-yl)-methylene-indolinone fumarate]	0.039	1.39	
CC(CCO[N+](=O)[O-])NCC(O)COc1cccc2c1C(=Cc1ccc(C#N)cc1)C(=O)N2 (centres unmarked) [4 (j), 4-[2-hydroxy-3-(1-methyl-3-nitratopropylamino)-propoxy]-3-(4-cyanobenzylidene)-indolinone hemifumarate]		0.49	
Cc1cc(C=C2C(=O)Nc3cccc(OCC(O)CNCC(C)(C)CO[N+](=O)[O-])c32)[nH]n1 (centres unmarked) [4 (k), 4-[2-hydroxy-3-(2,2-dimethyl-3-nitratopropylamino)-propoxy]-3-(3-methylpyrazol-5-yl)-methyleneindolinone]		1.88	
CC(CCO[N+](=O)[O-])NCC(O)COc1cccc2c1C(C)(C)C(=O)N2 (centres unmarked) [BV 2, 4-[2-hydroxy-3-(1-methyl-3-nitratopropylamino)-propoxy]-3,3-dimethylindolinone fumarate]		2.99	
CC(CCO[N+](=O)[O-])NCC(O)COc1cccc2c1C(=Cc1cccc(Cl)c1)C(=O)N2 (centres unmarked) [BV 4, 4-[2-hydroxy-3-(1-methyl-3-nitratopropylamino)-propoxy]-3-(3-chlorobenzylidene)-indolinone fumarate]	1.09	1.22	
Cc1ccccc1C=C1C(=O)Nc2cccc(OCC(O)CNC(C)CCO[N+](=O)[O-])c21 (centres unmarked) [BV 6, 4-[2-hydroxy-3-(1-methyl-3-nitratopropylamino)-propoxy]-3-(2-methylbenzylidene)-indolinon fumarate]	> 4	0.74	
COc1cccc(C=C2C(=O)Nc3cccc(OCC(O)CNC(C)CCO[N+](=O)[O-])c32)c1 (centres unmarked) [BV 9, 4-[2-hydroxy-3-(1-methyl-3-nitratopropylamino)-propoxy]-3-(3-methoxybenzylidene)-indolinone acetate]	0.765	0.60	
CC(CCO[N+](=O)[O-])NCC(O)COc1cccc2c1C(=Cc1ccc([N+](=O)[O-])cc1)C(=O)N2 (centres unmarked) [BV 20, 4-[2-hydroxy-3-(1-methyl-3-nitratopropylamino)-propoxy]-3-(4-nitrobenzylidene)-indolinone]		0.71	0.113
CC(C)(CNCC(O)COc1cccc2c1CC(=O)N2)CO[N+](=O)[O-] (centres unmarked) [BV 40, 4-[2-hydroxy-3-(2,2-dimethyl-3-nitratopropylamino)-propoxy]-indolinone hemifumarate]	0.69	3.51	
Cc1cc(C=C2C(=O)Nc3cccc(OCC(O)CNC(C)CCO[N+](=O)[O-])c32)[nH]n1 (centres unmarked) [BV 43, 4-[2-hydroxy-3-(1-methyl-3-nitratopropylamino)-propoxy]-3-(3-methylpyrazol-5-yl)-methyleneindolinone]	0.0096	0.83	
CC(CCO[N+](=O)[O-])NCC(O)COc1cccc2c1CC(=O)N2 (centres unmarked) [Example 1, 4-[2-hydroxy-3-(1-methyl-3-nitratopropylamino)-propoxy]-indolinone benzoate]	0.0066	1.60	
CC(CCO[N+](=O)[O-])NCC(O)COc1cccc2c1C(=Cc1ccn[nH]1)C(=O)N2 (centres unmarked) [Example 2, 4-[2-Hydroxy-3-(1-methyl-3-nitratopropylamino)-propoxy]-3-(pyrazol-5-yl)-methyleneindolinone benzoate]	0.011	1.12	
O=[N+]([O-])O[C@@H]1CO[C@H]2[C@@H]1OC[C@@H]2O [Isosorbide-5-mononitrate, isosorbide-5-mononitrate, reference compound]		0.86	
CC(C)NCC(O)COc1cccc2[nH]ccc12 (centres unmarked) [Pindolol, reference compound]	0.104		
